Results: PubChem BioAssay AID743300 (The Scripps Research Institute Molecular Screening Center, 2014)

Target: methionyl-tRNA synthetase (Trypanosoma brucei brucei)
Test: T. brucei MetRS inhibitors, late-stage follow-up, biochemical, luminescence, dose response, round 2 (AID 743300)
Conditions: T. brucei MetRS enzyme, luminescence read-out

CCN(CC)C(=O)C(=O)c1cn(CC(=O)Nc2cccc(C(F)(F)F)c2)c2ccccc12
IC50: 99.5 nM
